Experimental data reported in PubChem BioAssay (NCI).
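Protocol summary: plate cells (96-well), add compound at 5 concentrations, incubate 48 h, interpolate endpoints linearly. GI50 marks 50% less growth. The concentration for full growth arrest is given as TGI.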

What was measured:
Assay in all cases: NCI-60 cell line screen, 48 h
UO-31 renal = tested on: UO-31 renal
NCI-H23 lung = tested on: NCI-H23 lung
RXF 393 renal = tested on: RXF 393 renal
BT-549 breast = tested on: BT-549 breast
MOLT-4 leukemia = tested on: MOLT-4 leukemia
OVCAR-5 ovarian = tested on: OVCAR-5 ovarian
COLO 205 colon = tested on: COLO 205 colon
DU-145 prostate = tested on: DU-145 prostate
A498 renal = tested on: A498 renal
CAKI-1 renal = tested on: CAKI-1 renal
NCI-H522 lung = tested on: NCI-H522 lung
NCI/ADR-RES ovarian = tested on: NCI/ADR-RES ovarian
HCC-2998 colon = tested on: HCC-2998 colon
MDA-MB-231 breast = tested on: MDA-MB-231 breast
SW-620 colon = tested on: SW-620 colon
MDA-MB-435 = tested on: MDA-MB-435
OVCAR-8 ovarian = tested on: OVCAR-8 ovarian
786-0 renal = tested on: 786-0 renal
RPMI-8226 leukemia = tested on: RPMI-8226 leukemia
KM12 colon = tested on: KM12 colon
UACC-257 melanoma = tested on: UACC-257 melanoma
CCRF-CEM leukemia = tested on: CCRF-CEM leukemia
MALME-3M melanoma = tested on: MALME-3M melanoma
M14 melanoma = tested on: M14 melanoma
NCI-H460 lung = tested on: NCI-H460 lung
PC-3 prostate = tested on: PC-3 prostate
HOP-62 NSCLC = tested on: HOP-62 NSCLC
SN12C renal = tested on: SN12C renal
UACC-62 melanoma = tested on: UACC-62 melanoma
A549 NSCLC = tested on: A549 NSCLC
SNB-19 CNS = tested on: SNB-19 CNS
SK-MEL-28 melanoma = tested on: SK-MEL-28 melanoma
HCT-15 colon = tested on: HCT-15 colon
EKVX NSCLC = tested on: EKVX NSCLC
ACHN renal = tested on: ACHN renal
T-47D breast = tested on: T-47D breast
MCF7 breast = tested on: MCF7 breast
HOP-92 NSCLC = tested on: HOP-92 NSCLC
U251 CNS = tested on: U251 CNS
OVCAR-4 ovarian = tested on: OVCAR-4 ovarian
NCI-H226 lung = tested on: NCI-H226 lung
SK-OV-3 ovarian = tested on: SK-OV-3 ovarian
IGROV1 ovarian = tested on: IGROV1 ovarian
SF-268 CNS = tested on: SF-268 CNS
SK-MEL-2 melanoma = tested on: SK-MEL-2 melanoma
TK-10 renal = tested on: TK-10 renal
SF-539 CNS = tested on: SF-539 CNS
SR leukemia = tested on: SR leukemia
LOX IMVI melanoma = tested on: LOX IMVI melanoma
MDA-MB-468 breast = tested on: MDA-MB-468 breast
OVCAR-3 ovarian = tested on: OVCAR-3 ovarian
HT29 colon = tested on: HT29 colon
SNB-75 CNS = tested on: SNB-75 CNS
SK-MEL-5 melanoma = tested on: SK-MEL-5 melanoma
HS 578T breast = tested on: HS 578T breast
SF-295 CNS = tested on: SF-295 CNS
HCT-116 colon = tested on: HCT-116 colon

## Cn1cc(-c2cc(N)n3nc(-c4c[nH]c5ccccc45)cc3n2)c2cc(F)ccc21
UO-31 renal
  GI50: 1.71 µM
  TGI: 3.65 µM
NCI-H23 lung
  GI50: 1.91 µM
  TGI: 4.22 µM
RXF 393 renal
  GI50: 1.9 µM
  TGI: 4.19 µM
BT-549 breast
  GI50: 17.6 µM
  TGI: 34.2 µM
MOLT-4 leukemia
  GI50: 2.32 µM
  TGI: 6.32 µM
OVCAR-5 ovarian
  GI50: 1.97 µM
  TGI: 4.27 µM
COLO 205 colon
  GI50: 2.17 µM
  TGI: 4.33 µM
DU-145 prostate
  GI50: 3.7 µM
  TGI: 13.3 µM
A498 renal
  GI50: 11.6 µM
  TGI: 26.6 µM
CAKI-1 renal
  GI50: 1.97 µM
  TGI: 4.73 µM
NCI-H522 lung
  GI50: 1.78 µM
  TGI: 3.62 µM
NCI/ADR-RES ovarian
  GI50: 2.35 µM
  TGI: 6.35 µM
HCC-2998 colon
  GI50: 1.69 µM
  TGI: 3.18 µM
MDA-MB-231 breast
  GI50: 1.98 µM
  TGI: 3.63 µM
SW-620 colon
  GI50: 1.95 µM
  TGI: 4 µM
MDA-MB-435
  GI50: 1.93 µM
  TGI: 4.01 µM
OVCAR-8 ovarian
  GI50: 3.35 µM
  TGI: > 100 µM
786-0 renal
  GI50: 1.49 µM
  TGI: 2.95 µM
RPMI-8226 leukemia
  GI50: 2.48 µM
  TGI: 6.22 µM
KM12 colon
  GI50: 2.12 µM
  TGI: 4.64 µM
UACC-257 melanoma
  GI50: 1.9 µM
  TGI: 3.85 µM
CCRF-CEM leukemia
  GI50: 2.23 µM
  TGI: 5.75 µM
MALME-3M melanoma
  GI50: 1.75 µM
  TGI: 3.18 µM
M14 melanoma
  GI50: 1.86 µM
  TGI: 3.98 µM
NCI-H460 lung
  GI50: 2.2 µM
  TGI: 4.99 µM
PC-3 prostate
  GI50: 2.48 µM
  TGI: 9.08 µM
HOP-62 NSCLC
  GI50: 2.83 µM
  TGI: 13.9 µM
SN12C renal
  GI50: 2.44 µM
  TGI: 7.03 µM
UACC-62 melanoma
  GI50: 1.71 µM
  TGI: 3.19 µM
A549 NSCLC
  GI50: 2.84 µM
  TGI: 11.1 µM
SNB-19 CNS
  GI50: 2.38 µM
  TGI: 6.25 µM
SK-MEL-28 melanoma
  GI50: 1.7 µM
  TGI: 3.13 µM
HCT-15 colon
  GI50: 1.79 µM
  TGI: 3.78 µM
EKVX NSCLC
  GI50: 1.99 µM
  TGI: 4.86 µM
ACHN renal
  GI50: 2.07 µM
  TGI: 4.81 µM
T-47D breast
  GI50: 2.05 µM
  TGI: 4.92 µM
MCF7 breast
  GI50: 1.95 µM
  TGI: 4.34 µM
HOP-92 NSCLC
  GI50: 2.06 µM
  TGI: 4.46 µM
U251 CNS
  GI50: 1.97 µM
  TGI: 4.09 µM
OVCAR-4 ovarian
  GI50: 2.76 µM
  TGI: 8.16 µM
NCI-H226 lung
  GI50: 10.7 µM
  TGI: 45.2 µM
SK-OV-3 ovarian
  GI50: 6.82 µM
  TGI: 23.6 µM
IGROV1 ovarian
  GI50: 2.18 µM
  TGI: 5.61 µM
SF-268 CNS
  GI50: 2.6 µM
  TGI: 8.08 µM
SK-MEL-2 melanoma
  GI50: 2.06 µM
  TGI: 4.91 µM
TK-10 renal
  GI50: 2.02 µM
  TGI: 7.64 µM
SF-539 CNS
  GI50: 1.63 µM
  TGI: 3.01 µM
SR leukemia
  GI50: 2.01 µM
  TGI: > 100 µM
LOX IMVI melanoma
  GI50: 1.74 µM
  TGI: 3.11 µM
MDA-MB-468 breast
  GI50: 1.52 µM
  TGI: 2.97 µM
OVCAR-3 ovarian
  GI50: 2.3 µM
  TGI: 4.68 µM
HT29 colon
  GI50: 1.89 µM
  TGI: 3.96 µM
SNB-75 CNS
  GI50: 5.15 µM
  TGI: 20.3 µM
SK-MEL-5 melanoma
  GI50: 1.85 µM
  TGI: 3.73 µM
HS 578T breast
  GI50: 3.91 µM
  TGI: 21.7 µM
SF-295 CNS
  GI50: 1.71 µM
  TGI: 3.39 µM
HCT-116 colon
  GI50: 1.71 µM
  TGI: 3.24 µM
